[UNA] = unlocked nucleic acid; m = 2'-O-methyl; r = 2'-OH (RNA)
Legend:
HBV genome = experiment: siRNA IC50 (Table A); set-up: species or system Hepatitis B virus
[1] = system: HBV cccDNA-dependent precore RNA in DESHAe82 cells; experiment: DESHAe82 / DE19 cell culture system, cccDNA-derived precore RNA by qRT-PCR, MacSynergy II; format: cell-based, Hepatitis B virus; details: ETV μM: 0.01, 0.0032, 0.001, 0.0003, 0.0001, 3E−05, 0
Protocol: In vitro combination studies were conducted using a modification of the assay system described in Cai et al (Antimicrobial Agents Chemotherapy, 2012. Vol 56(8):4277-88). A previously developed HepDE19 cell culture system (Guo et al. J. Virology (2007) 81(22): 12472-12484) supports HBV DNA replication and cccDNA formation in a tetracycline (Tet)-regulated manner, and produces a detectable reporter molecule which is dependent upon the production and maintenance of cccDNA.
In the HepDE19 cell culture system, the reporters are the precore RNA and its cognate protein product, the secreted HBV “e antigen” (HBeAg). In HepDE19 cells, precore RNA and HBeAg are only produced from the cccDNA circular template, because the ORF of HBeAg and its 5′ RNA leader are separated between the opposite ends of the integrated viral genome, and only become contiguous with the formation of cccDNA. Although an assay based on the HepDE19 cell culture system is effective for determining activity, the results of high throughput screening may be complicated because the HBeAg ELISA cross reacts with a viral HBeAg homologue, which is the core antigen (HBcAg) expressed largely in a cccDNA-independent fashion in HepDE19 cells. To overcome this complication, an alternative cell culture system (designated herein as DESHAe82 cell culture system and described in PCT/EP/2015/06838) has been developed which includes an in-frame HA epitope tag in the N-terminal coding sequence of HBeAg in the transgene of DESHAe82 cells, without disrupting any cis-element critical for HBV replication, cccDNA transcription, and HBeAg secretion.
A chemiluminescence ELISA assay (CLIA) for the detection of HA-tagged HBeAg with HA antibody serving as capture antibody and […] has been developed, eliminating the contaminating signal from HBcAg. […] In addition, a protocol for quantitative reverse transcription and polymerase chain reaction (qRT-PCR) that is specific for detection of precore RNA in either DE19 or DESHAe82 cells was developed and is also used for the detection of the cccDNA-dependent mRNA (precore RNA) that is translated to produce HBeAg or HA-HBeAg.
To test the compound combinations, DESHAe82 or DE19 cells (as indicated in examples) were plated in 96 well tissue-culture treated microtiter plates in DMEM/F12 medium supplemented with 10% fetal bovine serum+1% penicillin-streptomycin with Tet, and incubated in a humidified incubator at 37° C. and 5% CO2 overnight. […] The two inhibitors were tested both singly as well as in combinations in a checkerboard fashion such that each test concentration of inhibitor A was combined with each test concentration of inhibitor B to determine their combination effects on inhibition of cccDNA formation and expression. Untreated negative control samples (0.5% DMSO or media only) were included on each plate in multiple wells. Following a 9 day-incubation, media was removed and cells were subjected to RNA extraction to measure the cccDNA-dependent precore mRNA level. Total cellular RNAs were extracted using a 96-well format total RNA isolation kit ([…]-NAGEL, Cat. 740466.4) by following the instruction of manufacturer (vacuum manifold processing, two more extra washes of Buffer RA4). RNA samples were eluted in RNAase-free water. Quantitative real-time RT-PCR was performed with a Roche LightCycler480 and RNA Master Hydrolysis probe (Catalog number 04991885001, Roche) using primers and conditions for specific detection of cccDNA-dependent precore RNA. GAPDH mRNA levels were also detected by standard methods and used to normalize the precore RNA levels.

“9m: siRNA duplex SEQ ID NO: 17 and 18 targeting the HBV genome (chain 1 AGGUAUGUUGCCCGUUUGUUU; chain 2 ACAAACGGGCAACAUACCUUU; chain 1: sugars from the 5' end [UNA]mrmrrrmrrrrrmrmrrr[UNA][UNA], backbone not given here; chain 2: sugars from the 5' end rrrrrrmrrrrrrrmrrrm[UNA][UNA], backbone not given here) [Compound 9m]” showed an IC50 (HBV genome) of 0.13 nM.

Work on “7m: siRNA duplex SEQ ID NO: 13 and 14 targeting the HBV genome (chain 1 CCGUGUGCACUUCGCUUCAUU; chain 2 UGAAGCGAAGUGCACACGGUU; chain 1: sugars from the 5' end [UNA]rrrmmrrrrrmrrrmrrr[UNA][UNA], backbone not given here; chain 2: sugars from the 5' end rrrrrrrrrrrmrrrrrmr[UNA][UNA], backbone not given here) [Compound 7m]” yielded an IC50 (HBV genome) of 0.06 nM.

In the case of “8m: siRNA duplex SEQ ID NO: 15 and 16 targeting the HBV genome (chain 1 GCUCAGUUUACUAGUGCCAUU; chain 2 UGGCACUAGUAAACUGAGCUU; chain 1: sugars from the 5' end [UNA]rmrrmrrrrrmrmrrrrr[UNA][UNA], backbone not given here; chain 2: sugars from the 5' end r14 m1 r4 [UNA]2, backbone not given here) [Compound 8m]”, the IC50 (HBV genome) is reported as 0.24 nM.

“14m: siRNA duplex SEQ ID NO: 27 and 28 targeting the HBV genome (chain 1 GCUCAGUUUACUAGUGCCAUU; chain 2 UGGCACUAGUAAACUGAGCUU; chain 1: sugars from the 5' end [UNA]rmrrmrrrrrmrmrrrrrr[UNA], backbone not given here; chain 2: sugars from the 5' end r14 m1 r6, backbone not given here) [Compound 14m]” gave an IC50 (HBV genome) of 0.16 nM.

In the case of `C[C@@H](NS(=O)(=O)c1ccc(F)c(C(=O)Nc2ccc(F)c(F)c2)c1)c1cncs1` [Compound 4], the “Average percent inhibition versus negative control (precore RNA)” value ([1]; Compound 4 0.032 μM) is reported as −49.48%, the “Average percent inhibition versus negative control (precore RNA)” value ([1]; Compound 4 0.100 μM) is reported as 66.78% and the “Average percent inhibition versus negative control (precore RNA)” value ([1]; Compound 4 0.317 μM) is reported as 94.67%. The “Average percent inhibition versus negative control (precore RNA)” value ([1]; Compound 4 1.001 μM) was 93.92%, the “Average percent inhibition versus negative control (precore RNA)” value ([1]; Compound 4 3.165 μM) was 97.88% and the “Average percent inhibition versus negative control (precore RNA)” value ([1]; Compound 4 10 μM) was 97.53%.

“2m: siRNA duplex SEQ ID NO: 3 and 4 targeting the HBV genome (chain 1 GCUCAGUUUACUAGUGCCAUU; chain 2 UGGCACUAGUAAACUGAGCUU; chain 1: sugars from the 5' end [UNA]rmmrmrrrrrrrrrrrmrr[UNA], backbone not given here; chain 2: sugars from the 5' end r9 m1 r7 m1 r3, backbone not given here) [Compound 2m]” was tested, and the IC50 (HBV genome) was 0.37 nM.

In the case of “12m: siRNA duplex SEQ ID NO: 23 and 24 targeting the HBV genome (chain 1 GCCGAUCCAUACUGCGGAAUU; chain 2 UUCCGCAGUAUGGAUCGGCUU; chain 1: sugars from the 5' end [UNA]rrmrmrrrrrrmmrrmrrr[UNA], backbone not given here; chain 2: sugars from the 5' end rrrrrrrmrrrrmrrrrmrrr, backbone not given here) [Compound 12m]”, the IC50 (HBV genome) is reported as 0.16 nM.

Work on “1m: siRNA duplex SEQ ID NO: 1 and 2 targeting the HBV genome (chain 1 AGGUAUGUUGCCCGUUUGUUU; chain 2 ACAAACGGGCAACAUACCUUU; chain 1: sugars from the 5' end [UNA]mrmrrmmrrrrrmrmrrr[UNA][UNA], backbone not given here; chain 2: sugars from the 5' end rrrrrrmrrrrrrrmrrrr[UNA][UNA], backbone not given here) [Compound 1m]” yielded an IC50 (HBV genome) of 1.43 nM.

“5m: siRNA duplex SEQ ID NO: 9 and 10 targeting the HBV genome (chain 1 CCGUGUGCACUUCGCUUCAUU; chain 2 UGAAGCGAAGUGCACACGGUU; chain 1: sugars from the 5' end [UNA]rrrmmrrrrrmrrrmrrrr[UNA], backbone not given here; chain 2: sugars from the 5' end r11 m1 r5 m1 r3, backbone not given here) [Compound 5m]” gave an IC50 (HBV genome) of 0.06 nM.

“15m: siRNA duplex SEQ ID NO: 29 and 30 targeting the HBV genome (chain 1 CUGGCUCAGUUUACUAGUGUU; chain 2 CACUAGUAAACUGAGCCAGUU; chain 1: sugars from the 5' end [UNA]mmrrmrrrrrmrrrrrrr[UNA][UNA], backbone not given here; chain 2: sugars from the 5' end r14 m1 r4 [UNA]2, backbone not given here) [Compound 15m]” gave an IC50 (HBV genome) of 0.17 nM.

“13m: siRNA duplex SEQ ID NO: 25 and 26 targeting the HBV genome (chain 1 GCCGAUCCAUACUGCGGAAUU; chain 2 UUCCGCAGUAUGGAUCGGCUU; chain 1: sugars from the 5' end [UNA]rrmrmrrrrrrmmrrmrr[UNA][UNA], backbone not given here; chain 2: sugars from the 5' end rrrrrrrmrrrrmrrrrmr[UNA][UNA], backbone not given here) [Compound 13m]” was tested, and the IC50 (HBV genome) was 0.2 nM.
